Laboratory results: US20170166598A1, “HETEROARYL COMPOUNDS FOR KINASE INHIBITION” (ARIAD PHARMACEUTICALS, INC., priority 2014, published 2017)
pIC50: −log10 of the molar value.

Legend:
Format in all cases: cell-based
[1] = target: T1, Her2 exon 20 YVMA insertion (A775_G776ins YVMA) (Homo sapiens, UniProt P04626, INS775YVMA); test: Ba/F3-Her2 Exon20 YVMA cell anti-proliferative assay (CellTiter 96 MTS, 72 h); settings: Ba/F3-Her2 Exon20 YVMA cells
T1 construct: expressed in transfected cells; host or cells: Ba/F3 (murine pro-B) cells transduced with lentivirus from pLVX-IRES puro
Source text: A compound's ability in selectively inhibiting Her2 exon 20 YVMA insertion mutations can be assessed using Ba/F3 cells, a murine pro-B cell line, which have been transduced with Her2 Exon20 YVMA insertions. An expression vector, pLVX-IRES puro (Clontech) coding for […] (A775_G776ins YVMA), was transfected into HEK293 cells by the Trans-Lentiviral ORF Packaging System (Thermo Scientific), to produce virus encoding EGFR exon 20 insertions. Ba/F3 (DSMZ) cells maintained in RPMI 1640 medium supplemented with 10% fetal bovine serum, 200 μM L-glutamine/200 μg/mL penicillin/200 μg/mL streptomycin (Life Technology) and 10 ng/mL IL-3 (R&D system), were infected by EGFR Exon20 virus and subsequently selected by puromycin (Life Technology) selection and IL-3 depletion. Ba/F3 cells expressing Her2 Exon20 YVMA insertions (named Ba/F3-Her2 Exon20 YVMA) can proliferate in the absence of IL-3. The anti-proliferative activity of compounds was determined as follows: BaF3-Her2 Exon20 YVMA cells seeded in 96 well plates (2500 cells/well) were treated with test compound (dissolved in DMSO) at a series of concentrations (4-fold dilution, top concentration: 10,000 nM). The plates were incubated for 72 h in a 37° C. incubator with 5% CO2, and the number of viable cells in each well were measured indirectly by CellTiter 96@ Aqueous One Solution Cell Proliferation Assay (Promega; this assay is a colorimetric method for determining the number of viable cells through measurement of their metabolic activity by detection of enzymatic conversion of tetrazolium salts into blue formazan derivatives). Reagent (20 μL) was added into each well, and the plates were returned to the incubator for 2 h. The absorbance in each well was then measured at 490 nm using an Envision plate reader (Perkin Elmer).

[2] = target: T2, human EGFR exon 20 insertion ASV (V769_D770insASV) (Homo sapiens, UniProt P00533, INS769ASV); test: Ba/F3-EGFR-Exon20-ASV cell anti-proliferative assay (CellTiter 96 MTS, 72 h); settings: Ba/F3-EGFR-Exon20-ASV cells
T2 construct: expressed in transfected cells; host or cells: Ba/F3 (murine pro-B) cells transduced with lentivirus from pLVX-IRES puro
Method: (§1) An expression vector, pLVX-IRES puro (Clontech) coding for human EGFR exon 20 insertions NPG (H773_V774insNPG) or ASV (V769_D770insASV), was transfected into HEK293 cells by the Trans-Lentiviral ORF Packaging System (Thermo Scientific), to produce virus encoding EGFR exon 20 insertions. Ba/F3 (DSMZ) cells maintained in RPMI 1640 medium supplemented with 10% fetal bovine serum, 200 μM L-glutamine/l 200 μg/mL penicillin/200 μg/mL streptomycin (Life Technology) and 10 ng/mL IL-3 (R&D system), were infected by EGFR Exon20 virus and subsequently selected by puromycin (Life Technology) selection and IL-3 depletion. […] The anti-proliferative activity of compounds were determined as follows: BaF3-EGFR-Exon20 cells (NPG or ASV) seeded in 96 well plates (2500 cells/well) were treated with test compound (dissolved in DMSO) at a series of concentrations (4-fold dilution, top concentration: 10,000 nM). The plates were incubated for 72 h in a 37° C. incubator with 5% CO2, and the number of viable cells in each well were measured indirectly by CellTiter 96® Aqueous One Solution Cell Proliferation Assay (Promega) This assay is a colorimetric method for determining the number of viable cells through measurement of their metabolic activity by detection of enzymatic conversion of tetrazolium salts into blue formazan derivatives. Reagent (20 μL) was added into each well, and the plates were returned to the incubator for 2 h. The absorbance in each well was then measured at 490 nm using an Envision plate reader (Perkin Elmer).

[3] = target: T3, human EGFR E746-A750 deletion and T790M Mutation (Homo sapiens, UniProt P00533, DEL746-750/T790M); test: Ba/F3-EGFR-Del/T790M cell anti-proliferative assay (CellTiter 96 MTS, 72 h); settings: Ba/F3-EGFR-Del/T790M cells
T3 construct: expressed in transfected cells; host or cells: Ba/F3 (murine pro-B) cells transduced with lentivirus from pLVX-IRES puro
Method: An expression vector, pLVX-IRES puro (Clontech) coding for human EGFR E746-A750 deletion and T790M Mutation, was transfected into HEK293 cells by the Trans-Lentiviral ORF Packaging System (Thermo Scientific), to produce virus encoding EGFR exon 19 deletion and T790M mutations. Ba/F3 (DSMZ) cells maintained in RPMI 1640 medium supplemented with 10% fetal bovine serum, 200 μM L-glutamine/200 μg/mL penicillin/200 μg/mL streptomycin (Life Technology) and 10 ng/mL IL-3 (R&D system), were infected by EGFR E746-A750 deletion and T790M Mutation virus and subsequently selected by puromycin (Life Technology) selection and IL-3 depletion. […] The anti-proliferative activity of compounds was determined as follows: BaF3-EGFR-Del/T790M cells seeded in 96 well plates (2500 cells/well) were treated with test compound (dissolved in DMSO) at a series of concentrations (4-fold dilution, top concentration: 10,000 nM). The plates were incubated for 72 h in a 37° C. incubator with 5% CO2, and the number of viable cells in each well were measured indirectly by CellTiter 96® Aqueous One Solution Cell Proliferation Assay (Promega; this assay is a colorimetric method for determining the number of viable cells through measurement of their metabolic activity by detection of enzymatic conversion of tetrazolium salts into blue formazan derivatives). Reagent (20 μL) was added into each well, and the plates were returned to the incubator for 2 h. The absorbance in each well was then measured at 490 nm using an Envision plate reader (Perkin Elmer).

[4] = target: T4, human EGFR exon 20 insertion NPG (H773_V774insNPG) (Homo sapiens, UniProt P00533, INS772GNP); test: Ba/F3-EGFR-Exon20-NPG cell anti-proliferative assay (CellTiter 96 MTS, 72 h); settings: Ba/F3-EGFR-Exon20-NPG cells
T4 construct: expressed in transfected cells; host or cells: Ba/F3 (murine pro-B) cells transduced with lentivirus from pLVX-IRES puro
Method: as §1

T1 sequence (P04626 with tags, fused parts or gaps INS775YVMA): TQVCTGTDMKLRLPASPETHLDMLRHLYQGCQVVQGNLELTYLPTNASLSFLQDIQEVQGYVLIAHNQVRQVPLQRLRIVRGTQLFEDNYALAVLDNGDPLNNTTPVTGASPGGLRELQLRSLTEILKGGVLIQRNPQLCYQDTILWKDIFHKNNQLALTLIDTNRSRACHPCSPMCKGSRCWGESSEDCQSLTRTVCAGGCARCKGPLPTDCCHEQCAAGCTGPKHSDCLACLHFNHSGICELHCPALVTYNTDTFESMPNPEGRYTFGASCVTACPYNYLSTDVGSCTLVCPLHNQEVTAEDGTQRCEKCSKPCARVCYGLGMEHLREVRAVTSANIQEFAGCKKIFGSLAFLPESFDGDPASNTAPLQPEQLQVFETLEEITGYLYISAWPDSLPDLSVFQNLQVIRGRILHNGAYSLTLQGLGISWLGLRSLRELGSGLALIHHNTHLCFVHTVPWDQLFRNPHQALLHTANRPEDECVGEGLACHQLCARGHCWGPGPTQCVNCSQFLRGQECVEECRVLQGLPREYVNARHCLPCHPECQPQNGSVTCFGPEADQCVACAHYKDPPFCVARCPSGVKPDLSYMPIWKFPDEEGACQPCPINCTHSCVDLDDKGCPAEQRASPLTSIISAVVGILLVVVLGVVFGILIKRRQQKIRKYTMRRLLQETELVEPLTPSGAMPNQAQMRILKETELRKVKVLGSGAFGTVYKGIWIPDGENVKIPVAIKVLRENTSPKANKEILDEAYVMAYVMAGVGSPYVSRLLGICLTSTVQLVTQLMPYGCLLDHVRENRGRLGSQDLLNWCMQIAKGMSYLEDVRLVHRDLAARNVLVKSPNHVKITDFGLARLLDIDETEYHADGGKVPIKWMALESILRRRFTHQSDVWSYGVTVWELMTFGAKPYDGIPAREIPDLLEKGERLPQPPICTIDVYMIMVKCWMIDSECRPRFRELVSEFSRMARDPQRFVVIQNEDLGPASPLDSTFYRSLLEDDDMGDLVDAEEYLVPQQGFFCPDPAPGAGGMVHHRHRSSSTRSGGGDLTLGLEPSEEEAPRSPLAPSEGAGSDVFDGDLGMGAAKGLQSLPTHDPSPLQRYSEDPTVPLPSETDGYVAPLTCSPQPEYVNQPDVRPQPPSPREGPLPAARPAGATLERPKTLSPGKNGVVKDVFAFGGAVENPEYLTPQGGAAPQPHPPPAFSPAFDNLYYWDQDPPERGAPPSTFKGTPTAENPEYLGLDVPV
T2 sequence (P00533 with tags, fused parts or gaps INS769ASV): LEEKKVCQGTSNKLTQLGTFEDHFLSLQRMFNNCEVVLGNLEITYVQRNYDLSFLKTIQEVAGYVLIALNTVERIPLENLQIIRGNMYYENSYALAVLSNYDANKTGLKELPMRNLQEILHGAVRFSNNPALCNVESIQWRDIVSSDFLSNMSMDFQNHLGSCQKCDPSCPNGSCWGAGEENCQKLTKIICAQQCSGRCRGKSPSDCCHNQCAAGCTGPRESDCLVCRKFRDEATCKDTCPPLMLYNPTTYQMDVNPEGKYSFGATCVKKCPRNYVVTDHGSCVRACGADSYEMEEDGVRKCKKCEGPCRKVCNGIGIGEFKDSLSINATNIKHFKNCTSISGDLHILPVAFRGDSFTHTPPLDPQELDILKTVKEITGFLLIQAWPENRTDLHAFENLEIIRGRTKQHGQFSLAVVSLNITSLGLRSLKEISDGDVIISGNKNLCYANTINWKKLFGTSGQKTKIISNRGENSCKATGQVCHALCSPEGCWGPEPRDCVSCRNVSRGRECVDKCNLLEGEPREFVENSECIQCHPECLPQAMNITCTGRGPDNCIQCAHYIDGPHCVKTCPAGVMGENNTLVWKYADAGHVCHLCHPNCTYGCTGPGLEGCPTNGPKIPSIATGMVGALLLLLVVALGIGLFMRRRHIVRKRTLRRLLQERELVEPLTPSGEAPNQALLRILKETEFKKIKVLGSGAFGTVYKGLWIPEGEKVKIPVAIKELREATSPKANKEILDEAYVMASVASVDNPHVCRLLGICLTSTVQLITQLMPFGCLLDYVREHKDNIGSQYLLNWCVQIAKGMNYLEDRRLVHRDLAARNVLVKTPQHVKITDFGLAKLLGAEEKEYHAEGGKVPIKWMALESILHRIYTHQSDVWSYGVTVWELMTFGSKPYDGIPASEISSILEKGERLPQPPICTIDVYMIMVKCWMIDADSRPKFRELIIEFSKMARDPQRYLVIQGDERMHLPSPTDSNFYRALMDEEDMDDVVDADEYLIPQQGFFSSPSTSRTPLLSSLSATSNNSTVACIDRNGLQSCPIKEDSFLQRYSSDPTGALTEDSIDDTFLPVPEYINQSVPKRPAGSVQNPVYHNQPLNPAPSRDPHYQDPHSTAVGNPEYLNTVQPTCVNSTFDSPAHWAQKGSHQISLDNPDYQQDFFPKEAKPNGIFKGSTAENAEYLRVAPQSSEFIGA
T4 sequence (P00533 with tags, fused parts or gaps INS772GNP): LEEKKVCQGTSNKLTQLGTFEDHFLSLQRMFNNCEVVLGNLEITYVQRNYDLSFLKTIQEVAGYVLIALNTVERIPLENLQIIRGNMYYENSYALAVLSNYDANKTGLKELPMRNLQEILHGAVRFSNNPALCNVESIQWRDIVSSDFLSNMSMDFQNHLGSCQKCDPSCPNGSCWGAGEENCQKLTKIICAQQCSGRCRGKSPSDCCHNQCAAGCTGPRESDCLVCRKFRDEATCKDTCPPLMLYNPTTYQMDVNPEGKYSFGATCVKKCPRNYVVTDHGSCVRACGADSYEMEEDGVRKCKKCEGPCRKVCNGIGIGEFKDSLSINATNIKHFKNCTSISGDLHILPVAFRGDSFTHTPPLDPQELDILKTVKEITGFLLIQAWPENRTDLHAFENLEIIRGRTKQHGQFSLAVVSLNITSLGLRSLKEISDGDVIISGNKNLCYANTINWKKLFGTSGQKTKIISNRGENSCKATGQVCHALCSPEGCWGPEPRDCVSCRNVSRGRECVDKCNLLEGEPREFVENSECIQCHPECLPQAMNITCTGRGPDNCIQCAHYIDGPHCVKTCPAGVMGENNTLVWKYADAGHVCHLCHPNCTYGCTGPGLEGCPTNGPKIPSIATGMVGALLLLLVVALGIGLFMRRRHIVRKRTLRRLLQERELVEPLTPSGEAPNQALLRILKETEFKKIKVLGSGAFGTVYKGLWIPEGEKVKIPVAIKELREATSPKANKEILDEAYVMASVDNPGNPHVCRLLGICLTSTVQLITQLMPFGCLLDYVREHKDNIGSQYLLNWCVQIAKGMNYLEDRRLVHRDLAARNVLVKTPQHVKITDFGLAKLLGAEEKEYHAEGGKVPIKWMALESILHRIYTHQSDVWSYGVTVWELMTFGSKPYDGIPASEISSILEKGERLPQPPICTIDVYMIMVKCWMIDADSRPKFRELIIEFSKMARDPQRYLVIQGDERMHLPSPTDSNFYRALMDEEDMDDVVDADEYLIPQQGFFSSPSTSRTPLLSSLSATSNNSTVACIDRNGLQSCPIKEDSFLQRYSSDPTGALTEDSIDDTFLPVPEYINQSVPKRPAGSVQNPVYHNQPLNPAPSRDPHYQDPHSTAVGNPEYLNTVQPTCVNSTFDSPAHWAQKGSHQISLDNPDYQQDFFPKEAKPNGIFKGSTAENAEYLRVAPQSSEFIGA
T3 sequence (P00533 with tags, fused parts or gaps DEL746-750/T790M): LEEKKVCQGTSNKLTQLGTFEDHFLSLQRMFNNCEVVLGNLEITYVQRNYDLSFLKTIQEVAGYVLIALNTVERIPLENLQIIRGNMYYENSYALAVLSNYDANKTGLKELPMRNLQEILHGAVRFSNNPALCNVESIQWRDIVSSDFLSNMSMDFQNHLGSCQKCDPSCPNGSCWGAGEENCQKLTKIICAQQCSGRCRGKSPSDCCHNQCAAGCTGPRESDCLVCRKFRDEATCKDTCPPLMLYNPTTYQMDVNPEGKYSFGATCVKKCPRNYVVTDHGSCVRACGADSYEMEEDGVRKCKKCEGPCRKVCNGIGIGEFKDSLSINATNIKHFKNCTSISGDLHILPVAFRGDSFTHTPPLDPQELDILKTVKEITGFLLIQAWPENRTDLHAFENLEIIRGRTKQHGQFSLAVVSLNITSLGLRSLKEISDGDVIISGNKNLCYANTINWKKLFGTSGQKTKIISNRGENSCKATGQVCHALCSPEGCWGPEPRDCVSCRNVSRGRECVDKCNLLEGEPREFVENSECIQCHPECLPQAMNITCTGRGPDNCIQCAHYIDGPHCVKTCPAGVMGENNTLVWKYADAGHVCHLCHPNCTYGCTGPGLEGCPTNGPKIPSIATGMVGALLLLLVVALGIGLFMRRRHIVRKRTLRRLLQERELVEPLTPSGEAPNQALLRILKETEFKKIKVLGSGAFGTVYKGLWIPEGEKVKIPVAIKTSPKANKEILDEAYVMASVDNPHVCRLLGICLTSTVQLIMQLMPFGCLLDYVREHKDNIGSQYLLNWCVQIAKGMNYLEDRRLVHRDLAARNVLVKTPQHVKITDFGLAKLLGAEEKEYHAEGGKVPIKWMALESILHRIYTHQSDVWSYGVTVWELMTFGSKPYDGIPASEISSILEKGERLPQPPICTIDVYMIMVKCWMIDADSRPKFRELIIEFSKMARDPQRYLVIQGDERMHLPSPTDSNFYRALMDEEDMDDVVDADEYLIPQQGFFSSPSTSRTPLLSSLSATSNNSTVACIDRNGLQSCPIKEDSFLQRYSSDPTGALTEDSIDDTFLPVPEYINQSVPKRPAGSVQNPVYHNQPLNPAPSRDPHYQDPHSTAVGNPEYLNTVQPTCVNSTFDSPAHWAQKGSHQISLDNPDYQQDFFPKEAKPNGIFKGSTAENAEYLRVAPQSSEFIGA

Compound	pIC50 [1]	pIC50 [2]	EGFR exon 19 deletion and exon 20 T790M mutation IC50 [3]	pIC50 [4]
C=CC(=O)Nc1cc(Nc2ncc(CC)c(-c3cn4c5c(cccc35)CCC4)n2)c(OC)cc1N(C)CCN(C)C [Example 2, N-(5-((4-(5,6-dihydro-4H-pyrrolo[3,2,1-ij]quinolin-1-yl)-5-ethylpyrimidin-2-yl)amino)-2-((2-(dimethylamino)ethyl)(methyl)amino)-4-methoxyphenyl)acrylamide]	6.30 to 7.00	> 7.00	A (IC50 value for the indicated mutant below about 100 nM)	> 7.00
C=CC(=O)Nc1cc(Nc2ncc(C#N)c(-c3cn4c5c(cccc35)OCC4)n2)c(OC)cc1N1CC[C@@H](N(C)C)C1 [Example 5, (R)-N-(5-((5-cyano-4-(2,3-dihydro-[1,4]oxazino[2,3,4-hi]indol-6-yl)pyrimidin-2-yl)amino)-2-(3-(dimethylamino)pyrrolidin-1-yl)-4-methoxyphenyl)acrylamide]	6.30 to 7.00	> 7.00	A (IC50 value for the indicated mutant below about 100 nM)	> 7.00
C=CC(=O)Nc1cc(Nc2ncc(C#N)c(-c3cn4c5c(cccc35)OCC4)n2)c(OC)cc1N1CC(N(C)C)C1 [Example 6, N-(5-((5-cyano-4-(2,3-dihydro-[1,4]oxazino[2,3,4-hi]indol-6-yl)pyrimidin-2-yl)amino)-2-(3-(dimethylamino)azetidin-1-yl)-4-methoxyphenyl)acrylamide]	6.30 to 7.00	6.30 to 7.00	A (IC50 value for the indicated mutant below about 100 nM)	> 7.00
[2H]C([2H])([2H])N(CCN(C)c1cc(OC)c(Nc2ncc(Cl)c(-c3cn4c5c(cccc35)OCC4)n2)cc1NC(=O)C=C)C([2H])([2H])[2H] [Example 7, N-(2-((2-(bis(methyl-d3)amino)ethyl)(methyl)amino)-5-((5-chloro-4-(2,3-dihydro-[1,4]oxazino[2,3,4-hi]indol-6-yl)pyrimidin-2-yl)amino)-4-methoxyphenyl)acrylamide]	> 7.00	> 7.00	A (IC50 value for the indicated mutant below about 100 nM)	> 7.00
C=CC(=O)Nc1cc(Nc2ncc(Cl)c(-c3cn4c5c(cccc35)OCC4)n2)c(OC)cc1N(C)CC1CCCN1C (stereo not drawn) [Example 8, N-(5-((5-chloro-4-(2,3-dihydro-[1,4]oxazino[2,3,4-hi]indol-6-yl)pyrimidin-2-yl)amino)-4-methoxy-2-(methyl((1-methylpyrrolidin-2-yl)methyl)amino)phenyl)acrylamide]	6.30 to 7.00	> 7.00	A (IC50 value for the indicated mutant below about 100 nM)	> 7.00
C=CC(=O)Nc1cc(Nc2ncc(Cl)c(-c3cn4c5c(cccc35)OCC4)n2)c(OC)cc1N(C)C1CCN(C)C1 (stereo not drawn) [Example 9, N-(5-((5-chloro-4-(2,3-dihydro-[1,4]oxazino[2,3,4-hi]indol-6-yl)pyrimidin-2-yl)amino)-4-methoxy-2-(methyl(1-methylpyrrolidin-3-yl)amino)phenyl)acrylamide]	6.00 to 6.30	6.30 to 7.00	A (IC50 value for the indicated mutant below about 100 nM)	> 7.00
C=CC(=O)Nc1cc(Nc2ncc(C3CC3)c(-c3cn4c5c(cccc35)CCC4)n2)c(OC)cc1N(C)CCN(C)C [Example 28, N-(5-((5-cyclopropyl-4-(5,6-dihydro-4H-pyrrolo[3,2,1-ij]quinolin-1-yl)pyrimidin-2-yl)amino)-2-((2-(dimethylamino)ethyl)(methyl)amino)-4-methoxyphenyl)acrylamide]	6.00 to 6.30		A (IC50 value for the indicated mutant below about 100 nM)	> 7.00
C=CC(=O)Nc1cc(Nc2ncc(C(=C)C)c(-c3cn4c5c(cccc35)CCC4)n2)c(OC)cc1N(C)CCN(C)C [Example 29, N-(5-((4-(5,6-dihydro-4H-pyrrolo[3,2,1-ij]quinolin-1-yl)-5-(prop-1-en-2-yl)pyrimidin-2-yl)amino)-2-((2-(dimethylamino)ethyl)(methyl)amino)-4-methoxyphenyl)acrylamide]	> 7.00		A (IC50 value for the indicated mutant below about 100 nM)	> 7.00
C=CC(=O)Nc1cc(Nc2ncc(C(C)C)c(-c3cn4c5c(cccc35)CCC4)n2)c(OC)cc1N(C)CCN(C)C [Example 30, N-(5-((4-(5,6-dihydro-4H-pyrrolo[3,2,1-ij]quinolin-1-yl)-5-isopropylpyrimidin-2-yl)amino)-2-((2-(dimethylamino)ethyl)(methyl)amino)-4-methoxyphenyl)acrylamide]	6.00 to 6.30		A (IC50 value for the indicated mutant below about 100 nM)	6.30 to 7.00
C=CC(=O)Nc1cc(Nc2ncc(Cl)c(-c3cn4c5c(cccc35)OCC4)n2)c(C)cc1OCCN1CCCC1 [Example 78, N-(5-((5-chloro-4-(2,3-dihydro-[1,4]oxazino[2,3,4-hi]indol-6-yl)pyrimidin-2-yl)amino)-4-methyl-2-(2-(pyrrolidin-1-yl)ethoxy)phenyl)acrylamide]	6.30 to 7.00		A (IC50 value for the indicated mutant below about 100 nM)	> 7.00
C=CC(=O)Nc1cc(Nc2ncc(Cl)c(-c3cn4c5c(cccc35)OCC4)n2)c(C)cc1N(C)CCN1CCCC1 [Example 79, N-(5-((5-chloro-4-(2,3-dihydro-[1,4]oxazino[2,3,4-hi]indol-6-yl)pyrimidin-2-yl)amino)-4-methyl-2-(methyl(2-(pyrrolidin-1-yl)ethyl)amino)phenyl)acrylamide]	6.30 to 7.00		A (IC50 value for the indicated mutant below about 100 nM)	> 7.00
